Data from patent US8846933B2, “N-link hydroxamic acid derivatives useful as antibacterial agents” (Pfizer Inc., priority 2009, dated 2014).

How the values were obtained:
[1] = tested on: Pseudomonas aeruginosa UI-18: Wild-type (PA-7); assay: MIC determination (CLSI), strain PA-7; format: cell-based; conditions: strain PA-7, unit assumed
Procedure, shortened: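 MIC determined by broth dilution per CLSI M7-A7 guidelines with M100-S18 interpretive standards. Test organism: wild-type Pseudomonas aeruginosa UI-18, designated PA-7.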

[2] = tested on: Escherichia coli EC-1: VOGEL, mouse virulent; assay: MIC determination (CLSI), strain EC-1; format: cell-based; conditions: strain EC-1, unit assumed
Procedure, shortened: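 The mouse-virulent VOGEL isolate of E. coli, EC-1, served as test organism. Minimum inhibitory concentration was measured by CLSI dilution methodology (M7-A7; M100-S18 standards).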

[3] = generated in the same manner as in Table 4

Compound	PA-7 (MIC) [1]	EC-1 (MIC) [2]	PA-7 (MIC) [1, 3]	EC-1 (MIC) [2, 3]
CN(C)c1ncc(-c2ccc(-c3ccn(CC[C@](C)(C(=O)NO)S(C)(=O)=O)c(=O)c3)cc2)cn1 [Example 409, (2R)-4-[4-{4-[2-(dimethylamino)pyrimidin-5-yl]phenyl}-2-oxopyridin-1(2H)-yl]-N-hydroxy-2-methyl-2-(methylsulfonyl)butanamide]	2 µg/mL	0.5 µg/mL		
CC(CCn1ccc(-c2ccc(-c3cccnc3)cc2F)cc1=O)(C(=O)NO)S(C)(=O)=O (stereo not drawn) [Example 295, 4-[4-(2-fluoro-4-pyridin-3-ylphenyl)-2-oxopyridin-1(2H)-yl]-N-hydroxy-2-methyl-2-(methylsulfonyl)butanamide]	8 µg/mL	1 µg/mL		
CC1(O)CCC(Oc2ccc(-c3ccn(CC[C@](C)(C(=O)NO)S(C)(=O)=O)c(=O)c3)cc2F)CC1 (stereo partly drawn) [Example 349, (2R)-4-[4-{3-fluoro-4-[(4-hydroxy-4-methylcyclohexyl)oxy]phenyl}-2-oxopyridin-1(2H)-yl]-N-hydroxy-2-methyl-2-(methylsulfonyl)butanamide]	4 µg/mL	0.5 µg/mL		
C[C@@](CCn1ccc(-c2ccc(C3(O)CCC3)cc2)cc1=O)(C(=O)NO)S(C)(=O)=O [Example 351, (2R)-N-hydroxy-4-{4-[4-(1-hydroxycyclobutyl)phenyl]-2-oxopyridin-1(2H)-yl}-2-methyl-2-(methylsulfonyl)butanamide]	16 µg/mL	16 µg/mL		
CC(=O)c1ccc(-c2ccn(CCC(C)(C(=O)NO)S(C)(=O)=O)c(=O)c2)s1 (stereo not drawn) [Example 167, 4-[4-(5-acetyl-2-thienyl)-2-oxopyridin-1(2H)-yl]-N-hydroxy-2-methyl-2-(methylsulfonyl)butanamide]			16 µg/mL	16 µg/mL
CC(CCn1ccc(-c2cc(Cl)ccc2F)cc1=O)(C(=O)NO)S(C)(=O)=O (stereo not drawn) [Example 150, 4-[4-(5-chloro-2-fluorophenyl)-2-oxopyridin-1(2H)-yl]-N-hydroxy-2-methyl-2-(methylsulfonyl)butanamide]			4 µg/mL	4 µg/mL
COc1ccc(-c2ccn(CCC(C)(C(=O)NO)S(C)(=O)=O)c(=O)c2)cc1F (stereo not drawn) [Example 180, 4-[4-(3-fluoro-4-methoxyphenyl)-2-oxopyridin-1(2H)-yl]-N-hydroxy-2-methyl-2-(methylsulfonyl)butanamide]			8 µg/mL	2 µg/mL
CC(CCn1ccc(-c2ccc(-c3ccncc3)c(F)c2)cc1=O)(C(=O)NO)S(C)(=O)=O (stereo not drawn) [Example 298, 4-[4-(3-fluoro-4-pyridin-4-ylphenyl)-2-oxopyridin-1(2H)-yl]-N-hydroxy-2-methyl-2-(methylsulfonyl)butanamide]	4 µg/mL	0.5 µg/mL		
CC(CCn1ccc(-c2ccc(F)c(F)c2)cc1=O)(C(=O)NO)S(C)(=O)=O (stereo not drawn) [Example 134, 4-[4-(3,4-difluorophenyl)-2-oxopyridin-1(2H)-yl]-N-hydroxy-2-methyl-2-(methylsulfonyl)butanamide]			4 µg/mL	4 µg/mL
CC(CCn1ccc(-c2ccc(OCCCN3CCC(F)(F)C3)cc2)cc1=O)(C(=O)NO)S(C)(=O)=O (stereo not drawn) [Example 93, 4-[4-{4-[3-(3,3-difluoropyrrolidin-1-yl)propoxy]phenyl}-2-oxopyridin-1(2H)-yl]-N-hydroxy-2-methyl-2-(methylsulfonyl)butanamide]			8 µg/mL	1 µg/mL
Cc1ccc2ccc(-c3ccn(CCC(C)(C(=O)NO)S(C)(=O)=O)c(=O)c3)cc2n1 (stereo not drawn) [Example 305, N-hydroxy-2-methyl-4-[4-(2-methylquinolin-7-yl)-2-oxopyridin-1(2H)-yl]-2-(methylsulfonyl)butanamide]	> 64 µg/mL	16 µg/mL		
CC(CCn1ccc(-c2ccc(S(N)(=O)=O)cc2)cc1=O)(C(=O)NO)S(C)(=O)=O (stereo not drawn) [Example 230, 4-{4-[4-(aminosulfonyl)phenyl]-2-oxopyridin-1(2H)-yl}-N-hydroxy-2-methyl-2-(methylsulfonyl)butanamide]	> 64 µg/mL	64 µg/mL		
CCOc1ccc2cc(-c3ccn(CC[C@](C)(C(=O)NO)S(C)(=O)=O)c(=O)c3)ccc2n1 [Example 385, (2R)-4-[4-(2-ethoxyquinolin-6-yl)-2-oxopyridin-1(2H)-yl]-N-hydroxy-2-methyl-2-(methylsulfonyl)butanamide]	0.5 µg/mL	0.06 µg/mL		
Cc1cc(-c2ccn(CCC(C)(C(=O)NO)S(C)(=O)=O)c(=O)c2)ccc1F (stereo not drawn) [Example 193, 4-[4-(4-fluoro-3-methylphenyl)-2-oxopyridin-1(2H)-yl]-N-hydroxy-2-methyl-2-(methylsulfonyl)butanamide]	2 µg/mL	2 µg/mL		
Cc1cc(-c2ccn(CCC(C)(C(=O)NO)S(C)(=O)=O)c(=O)c2)ccc1OCCCn1cncn1 (stereo not drawn) [Example 293, N-hydroxy-2-methyl-2-(methylsulfonyl)-4-[4-{3-methyl-4-[3-(1H-1,2,4-triazol-1-yl)propoxy]phenyl}-2-oxopyridin-1(2H)-yl]butanamide]	16 µg/mL	4 µg/mL		
CC(CCn1ccc(-c2ccc(Oc3ccccc3)cc2)cc1=O)(C(=O)NO)S(C)(=O)=O (stereo not drawn) [Example 156, N-hydroxy-2-methyl-2-(methylsulfonyl)-4-[2-oxo-4-(4-phenoxyphenyl)pyridin-1(2H)-yl]butanamide]			4 µg/mL	< 0.06 µg/mL
C[C@@](CCn1ccc(-c2ccc(-c3ccccn3)cc2)cc1=O)(C(=O)NO)S(C)(=O)=O [Example 374, (2R)-N-hydroxy-2-methyl-2-(methylsulfonyl)-4-[2-oxo-4-(4-pyridin-2-ylphenyl)pyridin-1(2H)-yl]butanamide]	1 µg/mL	0.25 µg/mL		
CC(CCn1ccc(-c2ccccc2)cc1=O)(C(=O)NO)S(C)(=O)=O (stereo not drawn) [Example 98, N-hydroxy-2-methyl-2-(methylsulfonyl)-4-(2-oxo-4-phenylpyridin-1(2H)-yl)butanamide]			32 µg/mL	64 µg/mL
CC(CCn1ccc(-c2cccc3cccnc23)cc1=O)(C(=O)NO)S(C)(=O)=O (stereo not drawn) [Example 189, N-hydroxy-2-methyl-2-(methylsulfonyl)-4-(2-oxo-4-quinolin-8-ylpyridin-1(2H)-yl)butanamide]	64 µg/mL	> 64 µg/mL		
CNC(=O)c1ccc(-c2ccn(CCC(C)(C(=O)NO)S(C)(=O)=O)c(=O)c2)cc1 (stereo not drawn) [Example 188, 4-{1-[4-(hydroxyamino)-3-methyl-3-(methylsulfonyl)-4-oxobutyl]-2-oxo-1,2-dihydropyridin-4-yl}-N-methylbenzamide]	> 64 µg/mL	> 64 µg/mL		
Cc1cc(-c2ccccc2)cc(=O)n1CCC(C)(C(=O)NO)S(C)(=O)=O (stereo not drawn) [Example 220, N-hydroxy-2-methyl-4-(6-methyl-2-oxo-4-phenylpyridin-1(2H)-yl)-2-(methylsulfonyl)butanamide]	> 64 µg/mL	> 64 µg/mL		
CC(CCn1ccc(-c2ccc3c(ccn3CCCO)c2)cc1=O)(C(=O)NO)S(C)(=O)=O (stereo not drawn) [Example 267, N-hydroxy-4-{4-[1-(3-hydroxypropyl)-1H-indol-5-yl]-2-oxopyridin-1(2H)-yl}-2-methyl-2-(methylsulfonyl)butanamide]	8 µg/mL	2 µg/mL		
COc1cc(F)ccc1-c1ccn(CCC(C)(C(=O)NO)S(C)(=O)=O)c(=O)c1 (stereo not drawn) [Example 166, 4-[4-(4-fluoro-2-methoxyphenyl)-2-oxopyridin-1(2H)-yl]-N-hydroxy-2-methyl-2-(methylsulfonyl)butanamide]			8 µg/mL	16 µg/mL
CCCCc1ccc(-c2ccn(CC[C@](C)(C(=O)NO)S(C)(=O)=O)c(=O)c2)cc1 [Example 464, (2R)-4-[4-(4-butylphenyl)-2-oxopyridin-1(2H)-yl]-N-hydroxy-2-methyl-2-(methylsulfonyl)butanamide]	1 µg/mL	0.03 µg/mL		
CC(CCn1ccc(-c2ccc(OCCCn3cncn3)c(Cl)c2)cc1=O)(C(=O)NO)S(C)(=O)=O (stereo not drawn) [Example 290, 4-[4-{3-chloro-4-[3-(1H-1,2,4-triazol-1-yl)propoxy]phenyl}-2-oxopyridin-1(2H)-yl]-N-hydroxy-2-methyl-2-(methylsulfonyl)butanamide]	16 µg/mL	16 µg/mL		
CC(CCn1ccc(-c2cccc(F)c2F)cc1=O)(C(=O)NO)S(C)(=O)=O (stereo not drawn) [Example 147, 4-[4-(2,3-difluorophenyl)-2-oxopyridin-1(2H)-yl]-N-hydroxy-2-methyl-2-(methylsulfonyl)butanamide]			1 µg/mL	2 µg/mL
CC(CCn1ccc(-c2ccc([N+](=O)[O-])cc2)cc1=O)(C(=O)NO)S(C)(=O)=O (stereo not drawn) [Example 101, N-hydroxy-2-methyl-2-(methylsulfonyl)-4-[4-(4-nitrophenyl)-2-oxopyridin-1(2H)-yl]butanamide]			4 µg/mL	8 µg/mL
C[C@@](CCn1ccc(-c2ccc(OCCCC3CCN(C(=O)CO)CC3)cc2)cc1=O)(C(=O)NO)S(C)(=O)=O [Example 313, (2R)-4-[4-{4-[3-(1-glycoloylpiperidin-4-yl)propoxy]phenyl}-2-oxopyridin-1(2H)-yl]-N-hydroxy-2-methyl-2-(methylsulfonyl)butanamide]	4 µg/mL	0.5 µg/mL		
C[C@@](CCn1ccc(-c2ccc(OC[C@H]3CC[C@H](O)CC3)c(F)c2)cc1=O)(C(=O)NO)S(C)(=O)=O [Example 318, (2R)-4-[4-{3-fluoro-4-[(trans-4-hydroxycyclohexyl)methoxy]phenyl}-2-oxopyridin-1(2H)-yl]-N-hydroxy-2-methyl-2-(methylsulfonyl)butanamide]	1 µg/mL	0.25 µg/mL		
CC(CCn1ccc(-c2cccc(O)c2F)cc1=O)(C(=O)NO)S(C)(=O)=O (stereo not drawn) [Example 96]			> 64 µg/mL	64 µg/mL
